In ChEMBL document CHEMBL1153407, “12-Substituted 2,3-dimethoxy-8,9-methylenedioxybenzo[i]phenanthridines as novel topoisomerase I-targeting antitumor agents” (Bioorg Med Chem, 2009):

How the values were obtained:
[1] = Cytotoxicity against human KB3-1 cells after 4 days by MTT method; type: functional, cell-based; conditions: KB 3-1, 96 h
[2] = Cytotoxicity against camptothecin-resistant human CPT-K5 cells after 4 days by MTT method; type: functional, cell-based; conditions: CPT-K5, 96 h
[3] = Cytotoxicity against BCRP overexpressing human KBH5.0 cells after 4 days by MTT method; type: functional, cell-based; conditions: KBH5.0 cell, 96 h
[4] = Cytotoxicity against human RPMI8402 cells after 4 days by MTT method; type: functional, cell-based; conditions: RPMI 8402, 96 h
P388 [5] = assay: Cytotoxicity against camptothecin-resistant mouse P388 cells after 4 days by MTT method; type: functional, cell-based; conditions: P388, 96 h
P388 [6] = assay: Cytotoxicity against mouse P388 cells after 4 days by MTT method; type: functional, cell-based; conditions: P388, 96 h
[7] = Cytotoxicity against MDR1 overexpressing human KBV1 cells after 4 days by MTT method; type: functional, cell-based; conditions: KB-V1, 96 h
[8] = target: T1, DNA topoisomerase 1 (Homo sapiens) (UniProt P11387); assay: Inhibition of human topoisomerase 1 expressed in sf9 cells assessed as drug level causing 10% mediated DNA cleavage relative to topotecan
T1 sequence (whole entry): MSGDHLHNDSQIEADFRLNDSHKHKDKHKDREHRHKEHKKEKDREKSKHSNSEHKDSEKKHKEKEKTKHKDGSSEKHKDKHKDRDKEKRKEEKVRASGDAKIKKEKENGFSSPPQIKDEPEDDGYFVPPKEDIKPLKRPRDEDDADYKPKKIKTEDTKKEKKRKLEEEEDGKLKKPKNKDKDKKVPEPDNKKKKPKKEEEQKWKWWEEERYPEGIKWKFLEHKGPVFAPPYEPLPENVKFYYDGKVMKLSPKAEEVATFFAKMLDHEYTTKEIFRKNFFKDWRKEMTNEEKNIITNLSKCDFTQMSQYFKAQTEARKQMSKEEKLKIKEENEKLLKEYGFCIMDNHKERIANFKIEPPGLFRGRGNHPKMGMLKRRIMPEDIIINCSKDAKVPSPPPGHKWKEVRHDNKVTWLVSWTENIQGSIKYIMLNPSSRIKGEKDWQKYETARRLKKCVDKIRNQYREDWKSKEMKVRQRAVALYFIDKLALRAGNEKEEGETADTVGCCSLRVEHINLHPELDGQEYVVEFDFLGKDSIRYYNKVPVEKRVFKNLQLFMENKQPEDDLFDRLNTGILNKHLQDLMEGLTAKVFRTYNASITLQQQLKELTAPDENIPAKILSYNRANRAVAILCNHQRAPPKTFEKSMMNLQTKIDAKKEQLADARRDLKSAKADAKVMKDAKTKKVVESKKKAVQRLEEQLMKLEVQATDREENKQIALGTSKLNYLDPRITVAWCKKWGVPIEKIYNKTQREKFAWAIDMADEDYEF

Activity [8] | SMILES | IC50 [1] [µM] | IC50 [2] [µM] | IC50 [3] [µM] | IC50 [4] [µM] | IC50 (P388 [5]) [µM] | IC50 (P388 [6]) [µM] | IC50 [7] [µM]
0.25 | COc1cc2c(CO)cc3c4cc5c(cc4ncc3c2cc1OC)OCO5 | 0.045 | 0.03 | 0.08 | 0.03 | 0.03 | 0.03 | 0.075
0.3 | COc1cc2c(CCN)cc3c4cc5c(cc4ncc3c2cc1OC)OCO5 | 0.05 | 0.25 | 0.2 | 0.025 | 0.3 | 0.016 | 0.5
15 | COc1cc2c(/C=C/CCN(C)C)cc3c4cc5c(cc4ncc3c2cc1OC)OCO5 | 0.32 | 0.22 | 0.32 | 0.3 | 0.06 | 0.03 | 0.4
1.1 | COc1cc2c(CN(C)C)cc3c4cc5c(cc4ncc3c2cc1OC)OCO5 | 0.03 | 0.033 | 0.06 | 0.033 | 0.015 | 0.005 | 0.17
9.2 | COc1cc2c(/C=C/[N+](=O)[O-])cc3c4cc5c(cc4ncc3c2cc1OC)OCO5 | 0.03 | 0.035 | 0.04 | 0.033 | 0.025 | 0.025 | 1.78
– | CC[C@@]1(O)C(=O)OCc2c1cc1n(c2=O)Cc2cc3c(CN(C)C)c(O)ccc3nc2-1 [TOPOTECAN] | 0.04 | – | 0.44 | – | – | – | 0.44
1.2 | CNC(=O)c1cc2c3cc4c(cc3ncc2c2cc(OC)c(OC)cc12)OCO4 | 0.031 | > 10 | 0.08 | 0.04 | 0.3 | 0.03 | 0.1
10 | COc1cc2c(CCCN(C)C)cc3c4cc5c(cc4ncc3c2cc1OC)OCO5 | 0.04 | 0.14 | 0.18 | 0.18 | 0.1 | 0.038 | 0.5
0.3 | COc1cc2c(=O)n(CCN(C)C)c3c4cc5c(cc4ncc3c2cc1OC)OCO5 | 0.005 | 0.9 | 0.006 | 0.002 | – | – | 0.002
9.2 | COc1cc2c(C(O)CCCN(C)C)cc3c4cc5c(cc4ncc3c2cc1OC)OCO5 (stereo unspecified) | 0.17 | 2.1 | 0.55 | 0.3 | 0.51 | 0.41 | 1.9
0.8 | COc1cc2c(C(N)=O)cc3c4cc5c(cc4ncc3c2cc1OC)OCO5 | 1.5 | > 10 | > 10 | 4 | > 10 | 1.6 | > 10
